Results published in the NIST ThermoML archive (doi:10.1016/j.jct.2011.05.033).
Values joined by “and” are separate entries in the source; they are usually repeats but may differ in a detail not shown here. Identical values can stand only once. Numbers after ± are expanded uncertainties.

Tests used:
[1] = excess molar enthalpy (molar enthalpy of mixing); xn = mol fraction of the nth substance listed; settings: 298.15 K, 101 kPa, Liquid, Isothermal Titration Calorimeter
[2] = xn = mol fraction of the nth substance listed; settings: 298.15 K, 101 kPa, Liquid, Vibrating tube method

CCCCCC[n+]1ccn(C)c1.O=S(=O)([N-]S(=O)(=O)C(F)(F)F)C(F)(F)F + CCCCO
[1]
Settings	excess molar enthalpy [kcal/mol]
x2 = 0.0064	0.0141 ± 0.000717
x2 = 0.0127	0.0277 ± 0.0012
x2 = 0.019	0.0411 ± 0.00167
x2 = 0.0252	0.0543 ± 0.00215
x2 = 0.0313	0.0672 ± 0.00287
x2 = 0.0373	0.0796 ± 0.00335
x2 = 0.0432	0.092 ± 0.00382
x2 = 0.0491	0.104 ± 0.0043
x2 = 0.0549	0.116 ± 0.00478
x2 = 0.0606	0.127 ± 0.00526
x2 = 0.0663	0.138 ± 0.00574
x2 = 0.0719	0.149 ± 0.00621
x2 = 0.0774	0.16 ± 0.00645
x2 = 0.0829	0.171 ± 0.00693
x2 = 0.0883	0.181 ± 0.00741

CCCCCCCCn1cc[n+](C)c1.O=S(=O)([N-]S(=O)(=O)C(F)(F)F)C(F)(F)F + CO
Settings	excess molar enthalpy [kcal/mol]	mass density
[1], x2 = 0.0153	0.0206 ± 0.000956	–
[1], x2 = 0.0302	0.0402 ± 0.00167	–
[1], x2 = 0.0446	0.0586 ± 0.00239	–
[1], x2 = 0.0586	0.076 ± 0.00311	–
[1], x2 = 0.0721	0.0923 ± 0.00382	–
[1], x2 = 0.0853	0.108 ± 0.0043	–
[1], x2 = 0.0982	0.122 ± 0.00502	–
[1], x2 = 0.1106	0.136 ± 0.0055	–
[1], x2 = 0.1228	0.149 ± 0.00598	–
[1], x2 = 0.1346	0.162 ± 0.00669	–
[1], x2 = 0.1461	0.173 ± 0.00717	–
[1], x2 = 0.1573	0.184 ± 0.00741	–
[1], x2 = 0.1682	0.195 ± 0.00789	–
[1], x2 = 0.1788	0.205 ± 0.00837	–
[1], x2 = 0.1892	0.214 ± 0.0086	–
[2], x1 = 0.0001	–	791.05 ± 1.6 kg/m3
[2], x1 = 0.0218	–	882.47 ± 1.8 kg/m3
[2], x1 = 0.0599	–	986.86 ± 2 kg/m3
[2], x1 = 0.0837	–	1031.65 ± 2.1 kg/m3
[2], x1 = 0.1926	–	1153.62 ± 2.4 kg/m3
[2], x1 = 0.2708	–	1198.9 ± 2.4 kg/m3
[2], x1 = 0.3019	–	1213.08 ± 2.5 kg/m3
[2], x1 = 0.5004	–	1267.25 ± 2.6 kg/m3
[2], x1 = 0.8201	–	1308.01 ± 2.6 kg/m3
[2], x1 = 0.8355	–	1308.78 ± 2.7 kg/m3
[2], x1 = 0.989	–	1319.5 ± 2.7 kg/m3
[2], x1 = 1	–	1320.55 ± 2.7 kg/m3 and 1320.38 ± 2.7 kg/m3

CCn1cc[n+](C)c1.O=S(=O)([N-]S(=O)(=O)C(F)(F)F)C(F)(F)F + CO
Settings	excess molar enthalpy [kcal/mol]	mass density
[1], x2 = 0.0118	0.0158 ± 0.000717	–
[1], x2 = 0.0233	0.0311 ± 0.0012	–
[1], x2 = 0.0346	0.0454 ± 0.00191	–
[1], x2 = 0.0456	0.0593 ± 0.00239	–
[1], x2 = 0.0563	0.0722 ± 0.00287	–
[1], x2 = 0.0668	0.0848 ± 0.00359	–
[1], x2 = 0.0771	0.0966 ± 0.00406	–
[1], x2 = 0.0872	0.108 ± 0.00454	–
[1], x2 = 0.097	0.119 ± 0.00478	–
[1], x2 = 0.1067	0.129 ± 0.00526	–
[1], x2 = 0.1161	0.139 ± 0.00574	–
[1], x2 = 0.1253	0.148 ± 0.00598	–
[1], x2 = 0.1343	0.157 ± 0.00645	–
[1], x2 = 0.1432	0.165 ± 0.00669	–
[1], x2 = 0.1519	0.173 ± 0.00717	–
[2], x1 = 0.0001	–	792.63 ± 1.6 kg/m3
[2], x1 = 0.0732	–	1040.6 ± 2.1 kg/m3
[2], x1 = 0.1082	–	1115.5 ± 2.3 kg/m3
[2], x1 = 0.1385	–	1165.23 ± 2.4 kg/m3
[2], x1 = 0.2145	–	1258.12 ± 2.6 kg/m3
[2], x1 = 0.2485	–	1289.7 ± 2.6 kg/m3
[2], x1 = 0.2968	–	1325.28 ± 2.7 kg/m3
[2], x1 = 0.3388	–	1351.25 ± 2.8 kg/m3
[2], x1 = 0.6002	–	1451 ± 3 kg/m3
[2], x1 = 0.6355	–	1459.63 ± 3 kg/m3
[2], x1 = 0.7925	–	1487.15 ± 3 kg/m3
[2], x1 = 0.837	–	1497.28 ± 3.1 kg/m3
[2], x1 = 1	–	1518.63 ± 3.1 kg/m3 and 1518.58 ± 3.1 kg/m3

CCCCCC[n+]1ccn(C)c1.O=S(=O)([N-]S(=O)(=O)C(F)(F)F)C(F)(F)F + CCO
[1]
Settings	excess molar enthalpy [kcal/mol]
x2 = 0.0095	0.0195 ± 0.000837
x2 = 0.0189	0.0383 ± 0.0016
x2 = 0.0281	0.0564 ± 0.00232
x2 = 0.0371	0.0739 ± 0.00311
x2 = 0.046	0.0907 ± 0.00382
x2 = 0.0547	0.107 ± 0.0043
x2 = 0.0632	0.123 ± 0.00502
x2 = 0.0716	0.138 ± 0.00574
x2 = 0.0798	0.152 ± 0.00621
x2 = 0.0879	0.166 ± 0.00669
x2 = 0.0959	0.18 ± 0.00741
x2 = 0.1037	0.193 ± 0.00789
x2 = 0.1114	0.206 ± 0.00837
x2 = 0.1189	0.218 ± 0.00884
x2 = 0.1263	0.23 ± 0.00932

CO [methanol] + CCCCCCCCn1cc[n+](C)c1.O=S(=O)([N-]S(=O)(=O)C(F)(F)F)C(F)(F)F
Settings	mass density [kg/m3]
[2], x2 = 0	792.64 ± 1.6

CO [methanol] + CCn1cc[n+](C)c1.O=S(=O)([N-]S(=O)(=O)C(F)(F)F)C(F)(F)F
Settings	mass density [kg/m3]
[2], x2 = 0	794.62 ± 1.6

CCCCCC[n+]1ccn(C)c1.O=S(=O)([N-]S(=O)(=O)C(F)(F)F)C(F)(F)F + CO
Settings	excess molar enthalpy [kcal/mol]	mass density
[1], x2 = 0.0147	0.0257 ± 0.00108	–
[1], x2 = 0.029	0.0503 ± 0.00208	–
[1], x2 = 0.0429	0.0738 ± 0.00311	–
[1], x2 = 0.0564	0.0962 ± 0.00406	–
[1], x2 = 0.0695	0.118 ± 0.00478	–
[1], x2 = 0.0823	0.138 ± 0.00574	–
[1], x2 = 0.0947	0.158 ± 0.00645	–
[1], x2 = 0.1068	0.176 ± 0.00717	–
[1], x2 = 0.1186	0.194 ± 0.00789	–
[1], x2 = 0.13	0.211 ± 0.0086	–
[1], x2 = 0.1412	0.228 ± 0.00932	–
[1], x2 = 0.1521	0.243 ± 0.01	–
[1], x2 = 0.1627	0.258 ± 0.0105	–
[1], x2 = 0.1731	0.272 ± 0.011	–
[1], x2 = 0.1832	0.286 ± 0.0117	–
[2], x1 = 0.0001	–	792.92 ± 1.6 kg/m3
[2], x1 = 0.0002	–	792.66 ± 1.6 kg/m3
[2], x1 = 0.0003	–	792.92 ± 1.6 kg/m3
[2], x1 = 0.0711	–	1017.33 ± 2.1 kg/m3
[2], x1 = 0.0868	–	1047.67 ± 2.1 kg/m3
[2], x1 = 0.1772	–	1163.23 ± 2.4 kg/m3
[2], x1 = 0.2176	–	1195.97 ± 2.4 kg/m3
[2], x1 = 0.2695	–	1228.24 ± 2.5 kg/m3
[2], x1 = 0.4991	–	1308.41 ± 2.7 kg/m3
[2], x1 = 0.5488	–	1318.7 ± 2.7 kg/m3
[2], x1 = 0.5851	–	1325.38 ± 2.7 kg/m3
[2], x1 = 1	–	1371.91 ± 2.8 kg/m3 and 1371.79 ± 2.8 kg/m3
